# Measured values: patent US10414774B2, “Compound useful for altering the levels of bile acids for the treatment of diabetes and cardiometabolc disease” (Merck Sharp & Dohme Corp., priority 2016, dated 2019)
# Molecular target: T1, Human CYP8B1 (Homo sapiens, UniProt Q9UNU6)
# T1 sequence (Q9UNU6 1-501): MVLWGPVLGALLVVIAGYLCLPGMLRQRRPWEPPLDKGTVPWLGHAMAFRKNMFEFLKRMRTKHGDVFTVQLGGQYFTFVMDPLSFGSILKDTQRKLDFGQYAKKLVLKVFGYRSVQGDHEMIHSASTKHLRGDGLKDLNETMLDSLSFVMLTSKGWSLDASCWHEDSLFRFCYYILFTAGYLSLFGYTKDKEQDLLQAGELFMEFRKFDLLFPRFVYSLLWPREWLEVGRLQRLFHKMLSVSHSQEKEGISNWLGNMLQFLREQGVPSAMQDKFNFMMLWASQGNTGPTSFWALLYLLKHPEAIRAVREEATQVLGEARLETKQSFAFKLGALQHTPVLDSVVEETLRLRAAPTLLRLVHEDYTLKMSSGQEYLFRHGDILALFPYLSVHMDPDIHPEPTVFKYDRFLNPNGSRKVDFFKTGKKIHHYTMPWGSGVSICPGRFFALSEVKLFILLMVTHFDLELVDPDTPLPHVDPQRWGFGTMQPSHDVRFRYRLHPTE
# Assay: Human CYP8B1 Liver Microsome Assay
# Settings: Human CYP8B1 IC50, human liver microsomes; substrate 7a-hydroxy-4-cholesten-3-one, NADPH; RapidFire MS detection of 7α,12α-dihydroxy-4-cholesten-3-one
row,IC50,SMILES
1,1.5 nM,"C[C@@H]1CN(c2c(C#N)c(Cl)nc3ccc(Cl)cc23)CC[C@@H]1C(=O)N1CCn2c(nnc2C(F)(F)F)C1 [Example 56, 2,6-dichloro-4-[(3S,4S)-3-methyl-4-{[3-(trifluoromethyl)-5,6-dihydro[1,2,4]triazolo[4,3-a]pyrazin-7(8H)-yl]carbonyl}piperidin-1-yl]quinoline-3-carbonitrile]"
2,307 nM,"CC[C@H]1CN(c2c(C#N)cnc3ccc(Cl)cc23)CC[C@H]1C(=O)N1CCn2c(nnc2C(F)(F)F)C1 [Example 75a, 6-chloro-4-[(3R,4R)-3-ethyl-4-{[3-(trifluoromethyl)-5,6-dihydro[1,2,4]triazolo[4,3-a]pyrazin-7(8H)-yl]carbonyl}piperidin-1-yl]quinoline-3-carbonitrile]"
3,69 nM,"CC1CN(c2c(C#N)c(C(F)F)nc3ccc(Cl)cc23)CCC1C(=O)N1CCn2c(nnc2C(F)(F)F)C1 (stereo not drawn) [Example 57, 6-chloro-2-(difluoromethyl)-4-(3-methyl-4-{[3-(trifluoromethyl)-5,6-dihydro[1,2,4]triazolo[4,3-a]pyrazin-7(8H)-yl]carbonyl}piperidin-1-yl)quinoline-3-carbonitrile]"
4,2.8 nM,"CC[C@@H]1CN(c2c(C#N)cnc3ccc(Cl)cc23)CC[C@@H]1C(=O)N1CCn2c(nnc2C(F)(F)F)C1 [Example 75b, 6-chloro-4-[(3S,4S)-3-ethyl-4-{[3-(trifluoromethyl)-5,6-dihydro[1,2,4]triazolo[4,3-a]pyrazin-7(8H)-yl]carbonyl}piperidin-1-yl]quinoline-3-carbonitrile]"
5,1.6 nM,"C[C@@H]1CN(c2c(C#N)cnc3ccccc23)CC[C@@H]1C(=O)N1CCn2c(nnc2C(F)(F)F)C1 [Example 79, 4-[(3S,4S)-3-methyl-4-{[3-(trifluoromethyl)-5,6-dihydro[1,2,4]triazolo[4,3-a]pyrazin-7(8H)-yl]carbonyl}piperidin-1-yl]quinoline-3-carbonitrile]"
6,15 nM,"CC1CC(C(=O)N2CCn3c(nnc3C(F)(F)F)C2)CCN1c1c(C#N)cnc2ccc(Cl)cc12 (single isomer, unassigned) [Example 73b, 6-chloro-4-[(2R,4R) or (2S,4S)-2-methyl-4-{[3-(trifluoromethyl)-5,6-dihydro[1,2,4]triazolo[4,3-a]pyrazin-7(8H)-yl]carbonyl}piperidin-1-yl]quinoline-3-carbonitrile]"
7,1.3 nM,"C[C@@H]1CN(c2c(C#N)cnc3c(F)c(F)ccc23)CC[C@@H]1C(=O)N1CCn2c(nnc2C(F)(F)F)C1 [Example 8, 7,8-difluoro-4-[(3S,4S)-3-methyl-4-{[3-(trifluoromethyl)-5,6-dihydro[1,2,4]triazolo[4,3-a]pyrazin-7(8H)-yl]carbonyl}piperidin-1-yl]quinoline-3-carbonitrile]"
8,0.51 nM,"COc1ccc2ncc(C#N)c(N3CC[C@H](C(=O)N4CCn5c(nnc5C(F)(F)F)C4)[C@H](C)C3)c2c1 [Example 9, 6-methoxy-4-[(3S,4S)-3-methyl-4-{[3-(trifluoromethyl)-5,6-dihydro[1,2,4]triazolo[4,3-a]pyrazin-7(8H)-yl]carbonyl}piperidin-1-yl]quinoline-3-carbonitrile]"
9,0.5 nM,"C[C@@H]1CN(c2c(C#N)cnc3cc(C(F)F)ccc23)CC[C@@H]1C(=O)N1CCn2c(nnc2C(F)(F)F)C1 [Example 23, 7-(difluoromethyl)-4-((3S,4S)-3-methyl-4-(3-(trifluoromethyl)-5,6,7,8-tetrahydro-[1,2,4]trizolo[4,3-a]pyrazine-7-carbonyl)piperidin-1-yl)quinolone-3-carbonitrile]"

# Further lines, the compound ahead of its results:
row,SMILES,IC50
1,"[2H]C([2H])([2H])Oc1ccc2c(N3CC[C@H](C(=O)N4CCn5c(nnc5C(F)(F)F)C4)[C@H](C)C3)c(C#N)cnc2c1 [Example 80, 7-[(^2H3)methyloxy]-4-[(3S,4S)-3-methyl-4-{[3-(trifluoromethyl)-5,6-dihydro[1,2,4]triazolo[4,3-a]pyrazin-7(8H)-yl]carbonyl}piperidin-1-yl]quinoline-3-carbonitrile]",0.35 nM
2,"N#Cc1cnc2c(F)c(Cl)ccc2c1N1CCC(C(=O)N2CCn3c(nnc3C(F)(F)F)C2)CC1 [Example 41, 7-chloro-8-fluoro-4-(4-{[3-(trifluoromethyl)-5,6-dihdyro[1,2,4]triazolo[4,3-a]pyrazin-7(8H)-yl]carbonyl}piperidin-1-yl)quinoline-3-carbonitrile]",43 nM
3,"Cc1nc2cc(F)c(F)cc2c(N2CCC(C(=O)N3CCn4c(nnc4C(F)(F)F)C3)CC2)c1C#N [Example 50, 6,7-difluoro-2-methyl-4-(4-(3-(trifluoromethyl)-5,6,7,8-tetrahydro-[1,2,4]triazolo[4,3-a]pyrazine-7-carbonyl)piperidin-1-yl)quinoline-3-carbonitrile]",2260 nM
4,"COc1ccc2c(N3CC[C@H](C(=O)N4Cc5nnc(C(F)(F)F)n5C(C)(C)C4)[C@H](C)C3)c(C#N)cnc2c1F [Example 82, 4-((3S,4S)-4-(5,5-dimethyl-3-(trifluoromethyl)-5,6,7,8-tetrahydro-[1,2,4]triazolo[4,3-a]pyrazine-7-carbonyl)-3-methylpiperidin-1-yl)-8-fluoro-7-methoxyquinoline-3-carbonitrile]",58 nM
5,"Cc1nc2ccc(Br)cc2c(N2CCC(C(=O)N3CCn4c(nnc4C(F)(F)F)C3)CC2)c1C#N [Example 48, 6-bromo-2-methyl-4-(4-(3-(trifluoromethyl)-5,6,7,8-tetrahydro-[1,2,4]triazolo[4,3-a]pyrazine-7-carbonyl)piperidin-1-yl)quinoline-3-carbonitrile]",109 nM
6,"COc1ccc2c(N3C[C@@H](C)N(C(=O)N4CCn5c(nnc5C(F)(F)F)C4)[C@H](C)C3)c(C#N)cnc2c1 [Example 83a, 4-((3R,5R)-3,5-dimethyl-4-(3-(trifluoromethyl)-5,6,7,8-tetrahydro-[1,2,4]triazolo[4,3-a]pyrazine-7-carbonyl)piperazin-1-yl)-7-methoxyquinoline-3-carbonitrile]",11.3 nM
7,"Cc1nc2ccc(Cl)cc2c(N2CC[C@H](C(=O)N3CCn4cccc4C3)[C@H](C)C2)c1C#N [Example 91, 6-chloro-4-[(3S,4S)-4-(3,4-dihydropyrrolo[1,2-a]pyrazin-2(1H)-ylcarbonyl)-3-methylpiperidin-1-yl]-2-methylquinoline-3-carbonitrile]",5.8 nM
8,"C[C@@H]1CN(c2c(C#N)cnc3cc(-c4ccccc4)ccc23)CC[C@@H]1C(=O)N1CCn2c(nnc2C(F)(F)F)C1 [Example 90, 4-((3S,4S)-3-methyl-4-(3-(trifluoromethyl)-5,6,7,8-tetrahydro-[1,2,4]triazolo[4,3-a]pyrazine-7-carbonyl)piperidin-1-yl)-7-phenylquinoline-3-carbonitrile]",0.2 nM
9,"CCc1ncc2n1CCN(C(=O)C1CCN(c3c(C#N)cnc4ccc(Cl)cc34)CC1)C2 [Example 114, 6-chloro-4-{4-[(3-ethyl-5,6-dihydroimidazo[1,5-a]pyrazin-7(8H)-yl)carbonyl]piperidin-1-yl}quinoline-3-carbonitrile]",1220 nM
10,"N#Cc1cnc2ccc(Cl)cc2c1N1CCC(C(=O)N2CCc3c(C(F)(F)F)n[nH]c3C2)CC1 [Example 111, 6-chloro-4-(4-{[3-(trfluoromethyl)-1,4,5,7-tetrahydro-6H-pyrazolo[3,4-c]pyridin-6-yl]carbonyl}piperidin-1-yl)quinoline-3-carbonitrile]",90 nM
11,"C[C@@H]1CN(c2c(C#N)cnc3cc(OCC(F)F)ccc23)CC[C@@H]1C(=O)N1CCn2c(nnc2C(F)(F)F)C1 [Example 102, 7-(2,2-difluoroethoxy)-4-[(3S,4S)-3-methyl-4-{[3-(trifluoromethyl)-5,6-dihydro[1,2,4]triazolo[4,3-a]pyrazin-7(8H)-yl]carbonyl}piperidin-1-yl]quinoline-3-carbonitrile]",0.33 nM
12,"C[C@@H]1CN(c2c(C#N)cnc3c2CCN(C(=O)OC2(C)CC2)C3)CC[C@@H]1C(=O)N1CCn2c(nnc2C2CC2)C1 [Example 85, 1-methylcyclopropyl 3-cyano-4-((3S,4S)-4-(3-cyclopropyl-5,6,7,8-tetrahydro-[1,2,4]triazolo[4,3-a]pyrazine-7-carbonyl)-3-methylpiperidin-1-yl)-5,6-dihydro-1,7-naphthyridine-7(8H)-carboxylate]",2 nM
13,"C[C@@H]1CN(c2c(C#N)cnc3ncc(Br)cc23)CC[C@@H]1C(=O)N1CCn2c(nnc2C(F)(F)F)C1 [Example 30, 6-bromo-4-[(3S,4S)-3-methyl-4-{[3-(trifluoromethyl)-5,6-dihydro[1,2,4]triazolo[4,3-a]pyrazin-7(8H)-yl]carbonyl}piperidin-1-yl]-1,8-naphthyridine-3-carbonitrile]",30 nM
14,"COc1ccc2c(N3CC[C@H](C(=O)N4CCn5c(nnc5C(F)(F)F)C4)[C@H](C)C3)c(C#N)c(C)nc2c1 [Example 34, 7-methoxy-2-methyl-4-[(3S,4S)-3-methyl-4-{[3-(trifluoromethyl)-5,6-dihdyro[1,2,4]triazolo[4,3-a]pyrazin-7(8H)-yl]carbonyl}piperidin-1-yl]quinoline-3-carbonitrile]",0.89 nM

# Same assay, conditions: read-out: Human CYP8B1 IC50; human liver microsomes; substrate 7a-hydroxy-4-cholesten-3-one, NADPH; RapidFire MS detection of 7α,12α-dihydroxy-4-cholesten-3-one
row,IC50,SMILES
1,41.4 nM,"C[C@@H]1CN(c2c(C#N)cnc3ccc(C(F)(F)F)cc23)CC[C@@H]1C(=O)N1CCn2c(nnc2C(F)(F)F)C1 (single isomer, unassigned) [Example 119a]"
